Measured values: US20030130123A1, “2-Phenyl-2h-pyridazine-3-ones” (priority 2000, published 2003)

Tests used:
GALAP (catchweed) = test: Greenhouse herbicidal action, postemergence treatment; type: in vivo; settings: 100 = complete destruction, 0 = no damage
Source text: (§1) The herbicidal action of the 2-phenylpyridazin-3-one compounds of the formula I could be shown by means of greenhouse experiments: […]
(§2) The cultivation containers used were plastic pots containing loamy sand with approximately 3.0% of humus as a substrate. The seeds of the test plants were sown separately according to species.
(§3) For the purpose of postemergence treatment, the test plants were first raised up to a growth height of 3 to 15 cm, depending on growth form, and then treated with the active compounds suspended or emulsified in water. For this, the test plants were either sown directly and raised in the same containers or they were first raised separately as seedlings and transplanted into the experimental containers a few days before the treatment. The application rate for the postemergence treatment was 15.6 or 7.8 g of a.s./ha.
(§4) The plants were kept species-specifically at temperature from 10-25° C. or 20-35° C. The experimental period extended over 2 to 4 weeks. During this time, the plants were tended, and their reaction to the individual treatments was assessed.
(§5) Assessment was carried out on a scale from 0 to 100. 100 here means no emergence of the plants or complete destruction of at least the above-ground parts and 0 means no damage or normal course of growth.
(§6) The plants used in the greenhouse experiments were made up of the following species:
(§7) The compound Ia.4 from Example 1 and the compound of Example 1-637 (X=H), disclosed in WO 97/07104, were tested in the postemergence process in the manner described.

[1] = system: BIDPI (hairy beggarticks); test: as above; type: in vivo; settings: 100 = complete destruction, 0 = no damage
Source text: as §1, §2, §3, §4, §5, §6, §7

COMBE (dayflower) = test: as above; type: in vivo; settings: 100 = complete destruction, 0 = no damage
Source text: as §1, §2, §3, §4, §5, §6, §7

ABUTH (velvetleaf) = test: as above; type: in vivo; settings: 100 = complete destruction, 0 = no damage
Source text: as §1, §2, §3, §4, §5, §6, §7

IPOSS (morning glory) = test: as above; type: in vivo; settings: 100 = complete destruction, 0 = no damage
Source text: as §1, §2, §3, §4, §5, §6, §7

[2] = application rate 7.8 g/ha (a.s.)
[3] = application rate 15.6 g/ha (a.s.)

Molecule C#CCOC(=O)C(Cl)=Cc1cc(-n2ncc(C(F)(F)F)c(C)c2=O)ccc1Cl [Ia.42, 2-[4-Chloro-3-(2-propargyloxycarbonyl-2-chloroethen-1-yl)phenyl]-4-methyl-5-trifluoromethyl-2H-pyridazin-3-one] has a melting point of 81 to 82 °C.

In the case of C=CCOC(=O)C(Cl)=Cc1cc(-n2ncc(C(F)(F)F)c(C)c2=O)ccc1Cl [Ia.41, 2-[4-Chloro-3-(2-allyloxycarbonyl-2-chloroethen-1-yl)phenyl]-4-methyl-5-trifluoromethyl-2H-pyridazin-3-one], the melting point is reported as 62 to 63 °C.

For COCCOC(=O)C(Cl)=Cc1cc(-n2ncc(C(F)(F)F)c(C)c2=O)ccc1Cl [Ia.12, 2-{4-Chloro-3-[2-(2-methoxyethoxy)carbonyl-2-chloroethen-1-yl]phenyl}-4-methyl-5-trifluoromethyl-2H-pyridazin-3-one], the melting point was 60 to 62 °C.

For CCOC(=O)C(Cl)=Cc1cc(-n2ncc(C(F)(F)F)c(C)c2=O)ccc1Cl [Ia.4, 2-[4-Chloro-3-(2-ethoxycarbonyl-2-chloroethen-1-yl)phenyl]-4-methyl-5-trifluoromethyl-2H-pyridazin-3-one], the “Herbicidal action, assessment on a scale from 0 to 100” value (“Herbicidal action, assessment” for short) (GALAP (catchweed); [2]) was 100, the “Herbicidal action, assessment” value (GALAP (catchweed); [3]) was 100 and the “Herbicidal action, assessment” value [1, 2] was 80. For the same molecule, the “Herbicidal action, assessment” value [1, 3] was 98, the “Herbicidal action, assessment” value (COMBE (dayflower); [2]) was 100 and the “Herbicidal action, assessment” value (COMBE (dayflower); [3]) was 100. For the same molecule, the “Herbicidal action, assessment” value (ABUTH (velvetleaf); [2]) was 100, the “Herbicidal action, assessment” value (ABUTH (velvetleaf); [3]) was 100 and the “Herbicidal action, assessment” value (IPOSS (morning glory); [2]) was 100. For the same molecule, the “Herbicidal action, assessment” value (IPOSS (morning glory); [3]) was 100.

Cc1c(C(F)(F)F)cnn(-c2ccc(Cl)c(C=C(Cl)C(=O)OCCC#N)c2)c1=O [Ia.16, 2-{4-Chloro-3-[2-(2-cyanoethoxy)carbonyl-2-chloroethen-1-yl]phenyl}-4-methyl-5-trifluoromethyl-2H-pyridazin-3-one] gave a melting point of 78 to 79 °C.
